Experimental data as given in PubChem BioAssay (NCI).
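48-hour exposure; five concentrations; linearly interpolated endpoints. GI50: concentration for 50% inhibition of growth. At the TGI there is no net growth.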

What was measured:
Assay in all cases: NCI-60 cell line screen, 48 h
HCT-15 colon = test system: HCT-15 colon
SK-OV-3 ovarian = test system: SK-OV-3 ovarian
OVCAR-3 ovarian = test system: OVCAR-3 ovarian
LOX IMVI melanoma = test system: LOX IMVI melanoma
A549 NSCLC = test system: A549 NSCLC
EKVX NSCLC = test system: EKVX NSCLC
NCI-H460 lung = test system: NCI-H460 lung
HOP-92 NSCLC = test system: HOP-92 NSCLC
RPMI-8226 leukemia = test system: RPMI-8226 leukemia
SNB-19 CNS = test system: SNB-19 CNS

SMILES	TGI (HCT-15 colon)	TGI (SK-OV-3 ovarian)	TGI (OVCAR-3 ovarian)	TGI (LOX IMVI melanoma)	TGI (A549 NSCLC)	TGI (EKVX NSCLC)	TGI (NCI-H460 lung)	TGI (HOP-92 NSCLC)	TGI (RPMI-8226 leukemia)	TGI (SNB-19 CNS)	GI50 (HCT-15 colon)	GI50 (SK-OV-3 ovarian)	GI50 (OVCAR-3 ovarian)	GI50 (LOX IMVI melanoma)	GI50 (A549 NSCLC)	GI50 (RPMI-8226 leukemia)	GI50 (SNB-19 CNS)	GI50 (EKVX NSCLC)	GI50 (NCI-H460 lung)	GI50 (HOP-92 NSCLC)
N/C(=N\N=C=C1C(=O)Nc2ccc(F)cc21)NO	> 100 µM	> 100 µM	> 100 µM	> 100 µM	> 100 µM	> 100 µM	> 100 µM	> 100 µM	–	–	–	–	–	–	–	–	–	–	–	–
COC1C2c3ccccc3C(C#N)(Cc3ccc4c(c32)OCO4)N1C(=O)c1ccccc1 (stereo unspecified)	> 100 µM	> 100 µM	> 100 µM	> 100 µM	–	> 100 µM	> 100 µM	> 100 µM	> 100 µM	> 100 µM	–	–	–	–	–	–	–	–	–	–
CCOc1ccc(NC(=O)/C(=C/c2ccccc2)C(C)=O)cc1	32.4 µM	40.7 µM	25.3 µM	25.2 µM	60.8 µM	35.4 µM	30.9 µM	28 µM	10.6 µM	24.9 µM	–	–	–	–	–	–	–	–	–	–
c1ccc(COc2ccc(Nc3ncnc4ccc(-c5ccco5)cc34)cc2)cc1	12.3 µM	8.16 µM	12.8 µM	8.96 µM	> 25 µM	> 25 µM	> 25 µM	7.21 µM	20.2 µM	> 25 µM	4.3 µM	0.994 µM	5400 nM	4360 nM	6.83 µM	5500 nM	12.7 µM	1.81 µM	2840 nM	379 nM
COc1ccc(C(=O)Nc2ccccc2C#N)cc1	> 100 µM	–	> 100 µM	> 100 µM	> 100 µM	> 100 µM	> 100 µM	> 100 µM	> 100 µM	> 100 µM	–	–	–	–	–	–	–	–	–	–
Fc1cccc(C=NC23CC4CC(CC(C4)C2)C3)c1	> 100 µM	> 100 µM	> 100 µM	> 100 µM	–	> 100 µM	> 100 µM	> 100 µM	> 100 µM	> 100 µM	–	–	–	–	–	–	–	–	–	–
Cc1nc(N=C(N)N)nc2ccc3ccccc3c12	14.1 µM	6.85 µM	3.77 µM	3.18 µM	7.24 µM	–	6.56 µM	–	7.36 µM	4.89 µM	2.99 µM	1.92 µM	1320 nM	1570 nM	1.95 µM	2530 nM	0.942 µM	–	2310 nM	–
CC(=O)[CH-]C(=O)c1ccccc1.CC(=O)[CH-]C(=O)c1ccccc1.[O-]Cc1cccs1.[O-]Cc1cccs1.[Ti+4]	46.2 µM	> 100 µM	> 100 µM	58 µM	> 100 µM	> 100 µM	> 100 µM	–	71.3 µM	> 100 µM	20 µM	> 100 µM	> 100000 nM	18100 nM	97.9 µM	27100 nM	> 100 µM	37.4 µM	29400 nM	–
COC12c3ccccc3-c3ccccc3C1[C@@H](C(=O)O)[C@H]2C(=O)O (stereo partly specified)	> 10 µM	> 10 µM	> 10 µM	> 10 µM	–	> 10 µM	> 10 µM	> 10 µM	> 10 µM	> 10 µM	–	–	–	–	–	–	–	–	–	–
CC1(C)CCC(CN2CCN(c3ccc(C(=O)NS(=O)(=O)c4ccc(NCC5CCOCC5)c([N+](=O)[O-])c4)c(Oc4cnc5[nH]ccc5c4)c3)CC2)=C(c2ccc(Cl)cc2)C1	11.2 µM	10.9 µM	5.44 µM	4.85 µM	11.8 µM	–	8.86 µM	2.77 µM	5.54 µM	23.8 µM	3.1 µM	3.16 µM	2310 nM	2210 nM	2.4 µM	1780 nM	3.55 µM	–	2640 nM	1290 nM
CCOC(=O)c1c(-c2ccccc2)[nH]c2ccccc2c1=O	> 100 µM	> 100 µM	–	–	> 100 µM	> 100 µM	> 100 µM	> 100 µM	> 100 µM	> 100 µM	–	–	–	–	–	–	–	–	–	–
Cn1cccc1C1CC(=O)N(CCC[Se]C#N)C1=O (stereo unspecified)	6.43 µM	6.72 µM	3.99 µM	4.28 µM	5.17 µM	4.46 µM	5.93 µM	–	5.04 µM	3.08 µM	2.35 µM	3.22 µM	1920 nM	1880 nM	2.07 µM	2200 nM	1.62 µM	1.93 µM	2050 nM	–
CC[C@]12C=CCN3CC[C@]4(C(=C(C(=O)OC)C1)Nc1ccccc14)[C@@H]32	10.4 µM	–	7.51 µM	4.13 µM	31.8 µM	22.4 µM	16.3 µM	9.27 µM	17.8 µM	23.3 µM	2.68 µM	–	2450 nM	1940 nM	12.4 µM	3170 nM	10.7 µM	5.99 µM	4110 nM	2280 nM
COc1cc(-c2[nH]ncc2CCCC(=O)Nc2ccccc2[N+](=O)[O-])ccc1O	> 100 µM	> 100 µM	–	> 100 µM	> 100 µM	> 100 µM	–	> 100 µM	> 100 µM	–	–	–	–	–	–	–	–	–	–	–
COC(=O)Oc1nn(C(=O)OC)c(=O)c2ccccc12 (tested in a mixture with another compound)	> 100 µM	> 100 µM	> 100 µM	> 100 µM	> 100 µM	> 100 µM	> 100 µM	–	> 100 µM	> 100 µM	–	–	–	–	–	–	–	–	–	–
CC1=C(C(=O)Nc2cc(F)c(F)cc2F)C(c2cccc([N+](=O)[O-])c2)C(C(=O)Nc2ccccc2C(F)(F)F)=C(C)N1 (stereo unspecified)	–	88.9 µM	41.9 µM	39.4 µM	> 100 µM	77.1 µM	43.6 µM	32.3 µM	37.4 µM	> 100 µM	–	–	–	–	–	–	–	–	–	–
CCCCCNC(=O)C1C(=O)N(CCCCC)C(=O)/C1=N\N (stereo unspecified)	> 100 µM	–	> 100 µM	–	> 100 µM	> 100 µM	> 100 µM	95.4 µM	–	> 100 µM	–	–	–	–	–	–	–	–	–	–
COc1ccc(Nc2nc3c(N)cc(C(F)(F)F)cc3nc2-c2ccccc2)cc1	> 100 µM	> 100 µM	> 100 µM	> 100 µM	> 100 µM	> 100 µM	> 100 µM	> 100 µM	–	> 100 µM	–	–	–	–	–	–	–	–	–	–
